Measured values published in ChEMBL document CHEMBL3045024, “Synthesis, structure and insecticidal activities of some novel amides containing N-pyridylpyrazole moeities” (2012).
The source made the active and inactive calls. The rule behind the calls is not given here.

Experiments:
Culex pipiens pallens = assay: Insecticidal activity against Culex pipiens pallens (mosquito) fourth-instar larvae assessed as mortality at 2 ug/mL measured 72 hr post compound treatment; assay type: functional
Plutella xylostella [1] = assay: Insecticidal activity against Plutella xylostella (diamondback moth) second-instar larvae infested on compound pre-treated cabbage leaves assessed as mortality at 25 ug/mL measured 3 days post compound treatment by leaf-dipping assay; assay type: functional
Plutella xylostella [2] = assay: Insecticidal activity against Plutella xylostella (diamondback moth) second-instar larvae infested on compound pre-treated cabbage leaves assessed as mortality at 200 ug/mL measured 3 days post compound treatment by leaf-dipping assay; assay type: functional
Spodoptera exigua [3] = assay: Insecticidal activity against Spodoptera exigua third-instar larvae infested on compound pre-treated cabbage leaves assessed as mortality at 200 ug/mL measured 3 days post compound treatment by leaf-dipping assay; assay type: functional
Spodoptera exigua [4] = assay: Insecticidal activity against Spodoptera exigua third-instar larvae infested on compound pre-treated cabbage leaves assessed as mortality at 25 ug/mL measured 3 days post compound treatment by leaf-dipping assay; assay type: functional
Mythimna separata [5] = assay: Insecticidal activity against fourth-instar larvae of Mythimna separata (Oriental armyworm) reared on compound pre-treated corn leaves assessed as mortality at 50 ug/mL measured 72 hr post compound treatment by leaf-dipping assay; assay type: functional
Spodoptera exigua [6] = assay: Insecticidal activity against Spodoptera exigua third-instar larvae infested on compound pre-treated cabbage leaves assessed as mortality at 100 ug/mL measured 3 days post compound treatment by leaf-dipping assay; assay type: functional
Spodoptera exigua [7] = assay: Insecticidal activity against Spodoptera exigua third-instar larvae infested on compound pre-treated cabbage leaves assessed as mortality at 50 ug/mL measured 3 days post compound treatment by leaf-dipping assay; assay type: functional
Mythimna separata [8] = assay: Insecticidal activity against fourth-instar larvae of Mythimna separata (Oriental armyworm) reared on compound pre-treated corn leaves assessed as mortality at 200 ug/mL measured 72 hr post compound treatment by leaf-dipping assay; assay type: functional
Plutella xylostella [9] = assay: Insecticidal activity against Plutella xylostella (diamondback moth) second-instar larvae infested on compound pre-treated cabbage leaves assessed as mortality at 100 ug/mL measured 3 days post compound treatment by leaf-dipping assay; assay type: functional
Mythimna separata [10] = assay: Insecticidal activity against fourth-instar larvae of Mythimna separata (Oriental armyworm) reared on compound pre-treated corn leaves assessed as mortality at 25 ug/mL measured 72 hr post compound treatment by leaf-dipping assay; assay type: functional
Plutella xylostella [11] = assay: Insecticidal activity against Plutella xylostella (diamondback moth) second-instar larvae infested on compound pre-treated cabbage leaves assessed as mortality at 50 ug/mL measured 3 days post compound treatment by leaf-dipping assay; assay type: functional
Mythimna separata [12] = assay: Insecticidal activity against fourth-instar larvae of Mythimna separata (Oriental armyworm) reared on compound pre-treated corn leaves assessed as mortality at 100 ug/mL measured 72 hr post compound treatment by leaf-dipping assay; assay type: functional
Mythimna separata [13] = assay: Insecticidal activity against fourth-instar larvae of Mythimna separata (Oriental armyworm) reared on compound pre-treated corn leaves assessed as mortality at 10 ug/mL measured 72 hr post compound treatment by leaf-dipping assay; assay type: functional
Mythimna separata [14] = assay: Insecticidal activity against fourth-instar larvae of Mythimna separata (Oriental armyworm) reared on compound pre-treated corn leaves assessed as induction of abnormal symptoms at 10 ug/mL measured 36 hr post compound treatment by leaf-dipping assay; assay type: functional, organism-based
Mythimna separata [15] = assay: Insecticidal activity against fourth-instar larvae of Mythimna separata (Oriental armyworm) reared on compound pre-treated corn leaves assessed as mortality at 5 ug/mL measured 72 hr post compound treatment by leaf-dipping assay; assay type: functional

Cc1cc(Cl)cc([N+](=O)[O-])c1NC(=O)c1cc(Br)nn1-c1ncccc1Cl
mortality at 2 µg/mL (Culex pipiens pallens): 20% | mortality at 25 µg/mL (Plutella xylostella [1]): 76% | mortality at 200 µg/mL (Plutella xylostella [2]): 95% | mortality at 200 µg/mL (Spodoptera exigua [3]): 98% | mortality at 25 µg/mL (Spodoptera exigua [4]): 92% | mortality at 50 µg/mL (Mythimna separata [5]): 100% | mortality at 100 µg/mL (Spodoptera exigua [6]): 100% | mortality at 50 µg/mL (Spodoptera exigua [7]): 95% | mortality at 200 µg/mL (Mythimna separata [8]): 100% | mortality at 100 µg/mL (Plutella xylostella [9]): 89% | mortality at 25 µg/mL (Mythimna separata [10]): 60% | mortality at 50 µg/mL (Plutella xylostella [11]): 84% | mortality at 100 µg/mL (Mythimna separata [12]): 100%

O=C(Nc1cc(Cl)ccc1Cl)c1cc(Br)nn1-c1ncccc1Cl
mortality at 2 µg/mL (Culex pipiens pallens): 10% | mortality at 200 µg/mL (Mythimna separata [8]): 0%

O=C(Nc1ccc([N+](=O)[O-])cc1)c1cc(Br)nn1-c1ncccc1Cl
mortality at 2 µg/mL (Culex pipiens pallens): 20% | mortality at 50 µg/mL (Mythimna separata [5]): 20% | mortality at 200 µg/mL (Mythimna separata [8]): 100% | mortality at 100 µg/mL (Mythimna separata [12]): 90%

O=C(Nc1ccc([N+](=O)[O-])cc1Cl)c1cc(Br)nn1-c1ncccc1Cl
mortality at 2 µg/mL (Culex pipiens pallens): 80% | mortality at 200 µg/mL (Plutella xylostella [2]): 78% | mortality at 10 µg/mL (Mythimna separata [13]): 80% | Activity (Mythimna separata [14]): Active | mortality at 200 µg/mL (Spodoptera exigua [3]): 91% | mortality at 25 µg/mL (Spodoptera exigua [4]): 65% | mortality at 50 µg/mL (Mythimna separata [5]): 100% | mortality at 100 µg/mL (Spodoptera exigua [6]): 86% | mortality at 50 µg/mL (Spodoptera exigua [7]): 78% | mortality at 200 µg/mL (Mythimna separata [8]): 100% | mortality at 100 µg/mL (Plutella xylostella [9]): 72% | mortality at 25 µg/mL (Mythimna separata [10]): 100% | mortality at 50 µg/mL (Plutella xylostella [11]): 0% | mortality at 100 µg/mL (Mythimna separata [12]): 100% | mortality at 5 µg/mL (Mythimna separata [15]): 0%

Cc1cccc(C)c1NC(=O)c1cc(Br)nn1-c1ncccc1Cl
mortality at 50 µg/mL (Mythimna separata [5]): 40% | mortality at 200 µg/mL (Mythimna separata [8]): 100% | mortality at 100 µg/mL (Mythimna separata [12]): 80%

O=C(Nc1ccc(F)cc1)c1cc(Br)nn1-c1ncccc1Cl
mortality at 2 µg/mL (Culex pipiens pallens): 0% | mortality at 25 µg/mL (Plutella xylostella [1]): 88% | mortality at 200 µg/mL (Plutella xylostella [2]): 100% | mortality at 200 µg/mL (Spodoptera exigua [3]): 95% | mortality at 25 µg/mL (Spodoptera exigua [4]): 96% | mortality at 50 µg/mL (Mythimna separata [5]): 100% | mortality at 100 µg/mL (Spodoptera exigua [6]): 100% | mortality at 50 µg/mL (Spodoptera exigua [7]): 92% | mortality at 200 µg/mL (Mythimna separata [8]): 100% | mortality at 100 µg/mL (Plutella xylostella [9]): 98% | mortality at 25 µg/mL (Mythimna separata [10]): 50% | mortality at 50 µg/mL (Plutella xylostella [11]): 99% | mortality at 100 µg/mL (Mythimna separata [12]): 100%

Cc1cccc([N+](=O)[O-])c1NC(=O)c1cc(Br)nn1-c1ncccc1Cl
mortality at 2 µg/mL (Culex pipiens pallens): 50% | mortality at 50 µg/mL (Mythimna separata [5]): 20% | mortality at 200 µg/mL (Mythimna separata [8]): 100% | mortality at 100 µg/mL (Mythimna separata [12]): 80%

Cc1cc(Cl)cc(C)c1NC(=O)c1cc(Br)nn1-c1ncccc1Cl
mortality at 2 µg/mL (Culex pipiens pallens): 30% | mortality at 25 µg/mL (Plutella xylostella [1]): 94% | mortality at 200 µg/mL (Plutella xylostella [2]): 100% | mortality at 10 µg/mL (Mythimna separata [13]): 20% | mortality at 200 µg/mL (Spodoptera exigua [3]): 100% | mortality at 25 µg/mL (Spodoptera exigua [4]): 94% | mortality at 50 µg/mL (Mythimna separata [5]): 100% | mortality at 100 µg/mL (Spodoptera exigua [6]): 100% | mortality at 50 µg/mL (Spodoptera exigua [7]): 98% | mortality at 200 µg/mL (Mythimna separata [8]): 100% | mortality at 100 µg/mL (Plutella xylostella [9]): 100% | mortality at 25 µg/mL (Mythimna separata [10]): 80% | mortality at 50 µg/mL (Plutella xylostella [11]): 97% | mortality at 100 µg/mL (Mythimna separata [12]): 100%

CNC(=O)c1cc(Cl)cc(C)c1NC(=O)c1cc(Br)nn1-c1ncccc1Cl [CHLORANTRANILIPROLE]
mortality at 2 µg/mL (Culex pipiens pallens): 100% | mortality at 25 µg/mL (Plutella xylostella [1]): 94% | Activity (Mythimna separata [14]): Active | mortality at 25 µg/mL (Spodoptera exigua [4]): 100% | mortality at 50 µg/mL (Spodoptera exigua [7]): 100% | mortality at 50 µg/mL (Plutella xylostella [11]): 100% | mortality at 5 µg/mL (Mythimna separata [15]): 100%

Cc1cc(Br)cc(C)c1NC(=O)c1cc(Br)nn1-c1ncccc1Cl
mortality at 2 µg/mL (Culex pipiens pallens): 30% | mortality at 200 µg/mL (Plutella xylostella [2]): 89% | mortality at 10 µg/mL (Mythimna separata [13]): 30% | mortality at 200 µg/mL (Spodoptera exigua [3]): 100% | mortality at 25 µg/mL (Spodoptera exigua [4]): 93% | mortality at 50 µg/mL (Mythimna separata [5]): 100% | mortality at 100 µg/mL (Spodoptera exigua [6]): 100% | mortality at 50 µg/mL (Spodoptera exigua [7]): 89% | mortality at 200 µg/mL (Mythimna separata [8]): 100% | mortality at 100 µg/mL (Plutella xylostella [9]): 72% | mortality at 25 µg/mL (Mythimna separata [10]): 100% | mortality at 50 µg/mL (Plutella xylostella [11]): 0% | mortality at 100 µg/mL (Mythimna separata [12]): 100%

O=C(Nc1ccc(Cl)cc1[N+](=O)[O-])c1cc(Br)nn1-c1ncccc1Cl
mortality at 2 µg/mL (Culex pipiens pallens): 40% | mortality at 200 µg/mL (Mythimna separata [8]): 10%

O=C(Nc1ccc(Cl)cc1)c1cc(Br)nn1-c1ncccc1Cl
mortality at 2 µg/mL (Culex pipiens pallens): 10% | mortality at 25 µg/mL (Plutella xylostella [1]): 97% | mortality at 200 µg/mL (Plutella xylostella [2]): 100% | mortality at 10 µg/mL (Mythimna separata [13]): 0% | mortality at 200 µg/mL (Spodoptera exigua [3]): 100% | mortality at 25 µg/mL (Spodoptera exigua [4]): 100% | mortality at 50 µg/mL (Mythimna separata [5]): 100% | mortality at 100 µg/mL (Spodoptera exigua [6]): 100% | mortality at 50 µg/mL (Spodoptera exigua [7]): 100% | mortality at 200 µg/mL (Mythimna separata [8]): 100% | mortality at 100 µg/mL (Plutella xylostella [9]): 98% | mortality at 25 µg/mL (Mythimna separata [10]): 70% | mortality at 50 µg/mL (Plutella xylostella [11]): 100% | mortality at 100 µg/mL (Mythimna separata [12]): 100%

O=C(Nc1ccc([N+](=O)[O-])cc1Br)c1cc(Br)nn1-c1ncccc1Cl
mortality at 2 µg/mL (Culex pipiens pallens): 40% | mortality at 25 µg/mL (Plutella xylostella [1]): 90% | mortality at 200 µg/mL (Plutella xylostella [2]): 100% | mortality at 200 µg/mL (Spodoptera exigua [3]): 100% | mortality at 25 µg/mL (Spodoptera exigua [4]): 100% | mortality at 50 µg/mL (Mythimna separata [5]): 30% | mortality at 100 µg/mL (Spodoptera exigua [6]): 100% | mortality at 50 µg/mL (Spodoptera exigua [7]): 100% | mortality at 200 µg/mL (Mythimna separata [8]): 100% | mortality at 100 µg/mL (Plutella xylostella [9]): 98% | mortality at 50 µg/mL (Plutella xylostella [11]): 96% | mortality at 100 µg/mL (Mythimna separata [12]): 100%

Cc1cc([N+](=O)[O-])cc(Cl)c1NC(=O)c1cc(Br)nn1-c1ncccc1Cl
mortality at 10 µg/mL (Mythimna separata [13]): 30% | mortality at 50 µg/mL (Mythimna separata [5]): 100% | mortality at 200 µg/mL (Mythimna separata [8]): 100% | mortality at 25 µg/mL (Mythimna separata [10]): 70% | mortality at 100 µg/mL (Mythimna separata [12]): 100%

O=C(Nc1cccc(Cl)c1)c1cc(Br)nn1-c1ncccc1Cl
mortality at 200 µg/mL (Mythimna separata [8]): 0%

Cc1ccc(NC(=O)c2cc(Br)nn2-c2ncccc2Cl)c(C)c1
mortality at 50 µg/mL (Mythimna separata [5]): 0% | mortality at 200 µg/mL (Mythimna separata [8]): 100% | mortality at 100 µg/mL (Mythimna separata [12]): 70%

Cc1cc([N+](=O)[O-])ccc1NC(=O)c1cc(Br)nn1-c1ncccc1Cl
mortality at 2 µg/mL (Culex pipiens pallens): 40% | mortality at 10 µg/mL (Mythimna separata [13]): 50% | mortality at 50 µg/mL (Mythimna separata [5]): 100% | mortality at 200 µg/mL (Mythimna separata [8]): 100% | mortality at 25 µg/mL (Mythimna separata [10]): 80% | mortality at 100 µg/mL (Mythimna separata [12]): 100%

O=C(Nc1ccc(I)cc1)c1cc(Br)nn1-c1ncccc1Cl
mortality at 2 µg/mL (Culex pipiens pallens): 100% | mortality at 50 µg/mL (Mythimna separata [5]): 50% | mortality at 200 µg/mL (Mythimna separata [8]): 100% | mortality at 100 µg/mL (Mythimna separata [12]): 100%

O=C(Nc1ccc(F)c(Cl)c1)c1cc(Br)nn1-c1ncccc1Cl
mortality at 200 µg/mL (Mythimna separata [8]): 100% | mortality at 100 µg/mL (Mythimna separata [12]): 0%

CCOc1ccc(NC(=O)c2cc(Br)nn2-c2ncccc2Cl)cc1
mortality at 2 µg/mL (Culex pipiens pallens): 30% | mortality at 200 µg/mL (Mythimna separata [8]): 100% | mortality at 100 µg/mL (Mythimna separata [12]): 0%
